Measured values published in US10253060B2, “Terpenoid derivatives” (Daiichi Sankyo Company, Limited, priority 2013, dated 2019).

Columns and labels:
Hmox1 gene = assay: Effect of inducing Nrf2 target gene (in vitro): Hmox1 gene expression in ARPE-19 cells, real-time quantitative PCR; assay type: cell-based, human; settings: for Hmox1 gene expression level (relative value): approx. 6 hours, 0 nM defined as 1.0, mean ± SD, 3 wells; for concentration at which the expression level of the Hmox1 gene was increased 2-fold / concentration at which the expression level of the Hmox1 gene was increased 5-fold: analysed with Prism
Method: The Hmox1 gene was used as the Nrf2 target gene.
The expression level of the Hmox1 gene induced by the addition of a test compound to ARPE-19 cells (human retinal pigment epithelium cell line, ATCC, catalog No. CRL-2302) was measured to examine the effect of inducing the Hmox1 gene by the test compound. The test compound was terpenoid derivative B of the present invention obtained in Example 1 and CDDO-Me as Comparative Example.
The ARPE-19 cells were cultured (5% CO2, 37° C.) using a DMEM/F12 (Life Technologies Japan Ltd., catalog No. 11330-032) mixed medium containing 10% inactivated FBS. The medium contained 100 units/mL (final concentration) penicillin and 100 μg/mL (final concentration) streptomycin.
The ARPE-19 cells were seeded at 60000 cells/well in a 24-well plate. The amount of the medium was 500 μL. Approximately 24 hours later, the medium was replaced with a medium containing terpenoid derivative B of the present invention obtained in Example 1 or CDDO-Me, and the culture was continued. Approximately 6 hours later, mRNA was collected from the ARPE-19 cells using an extraction kit (manufactured by Qiagen N.V., RNeasy Mini Kit, catalog No. 74106). From the obtained mRNA, cDNA was prepared using a cDNA synthesis kit (manufactured by GE Healthcare Life Sciences, First-Strand cDNA Synthesis Kit). The obtained cDNA was amplified using a reagent (manufactured by Applied Biosystems, Inc., TaqMan(R) Gene Expression Master Mix (catalog No. 4369016)) and a probe, and subjected to real-time quantitative PCR (Real-time PCR HT7900 manufactured by Applied Biosystems, Inc. was used).
When the concentration of the test compound was 0 nM, the expression level of the Hmox1 gene was defined as 1.0±0.0. The expression level of the Hmox1 gene at each concentration of the test compound was indicated as a relative value. Each group consisted of 3 wells and was indicated by a mean and standard deviation.
The activity ratios of terpenoid derivative B of the present invention to CDDO-Me were 2747 times and 92 times.

ARPE-19 cells = assay: Cytotoxicity, LDH-Cytotoxic Test in ARPE-19 cells; assay type: cell-based, human; settings: 10 μM, approx. 16 hours, 3 wells
Method: ARPE-19 cells (human retinal pigment epithelium cell line, ATCC, catalog No. CRL-2302) were cultured (5% CO2, 37° C.). A DMEM/F12 (Life Technologies Japan Ltd., catalog No. 11330-032) mixed medium containing 10% inactivated FBS was used. The medium contained 100 units/mL (final concentration) penicillin and 100 μg/[…] (final concentration) streptomycin.
The ARPE-19 cells were seeded at 5000 cells/well in a 96-well plate. The amount of the medium was 50 μL. Approximately 3 hours later, 50 μL of a medium containing CDDO-Me or each of terpenoid derivatives A to H was added thereto, followed by culture for approximately 16 hours. Then, cytotoxicity was evaluated using LDH-Cytotoxic Test (Wako Pure Chemical Industries, Ltd., catalog No. 299-50601). The evaluation method followed the attached document. Each group consisted of 3 wells and was indicated as cytotoxicity at the concentration of 10 μM. The means thereof were 43% for CDDO-Me, 2% for terpenoid derivative A, 2% for terpenoid derivative B, 2% for terpenoid derivative C, 1% for terpenoid derivative D, 2% for terpenoid derivative E, 3% for terpenoid derivative F, 3% for terpenoid derivative G, and 1% for terpenoid derivative H. Terpenoid derivatives A to H were low in cytotoxicity as compared with CDDO-Me.

[1] = tested on: oxygen-induced retinopathy in rat; assay: Inhibitory effect on oxygen-induced retinopathy in rat (in vivo); design: species or system SD rat; settings: for Score of pathological condition of retina: rat newborns, oxygen load present, seven times, mean ± SD
Method: SD rat newborns (Charles River Laboratories Japan, Inc., pregnant rats were received) were used in the experiment. From the ages of 1 day to 12 days, the newborns were raised under approximately 80% oxygen with the mother rats. The newborns were raised under the atmosphere from the age of 13 days. A suspension of the terpenoid derivative B was prepared using a 0.5 w/v % methylcellulose solution 400 cP (Wako Pure Chemical Industries, Ltd., catalog No. 133-14255) as a solvent. The suspension was orally administered once a day from the ages of 11 days to 17 days, a total of seven times, at a dose of 0.03, 0.1, or 0.3 mpk with administration volume of 10 mL/kg. On the next day of the final […], the newborn rats were euthanized, and the retina was sampled. The pathological condition of the retina was scored according to the literature (Invest Ophthalmol Vis Sci 2000; 41: 887-). Each group consisted of 14 to 30 eyes and was indicated as a mean and standard deviation.

SMILES | activity ratio to CDDO-Me (2-fold Hmox1 increase concentration) (Hmox1 gene) | activity ratio to CDDO-Me (5-fold Hmox1 increase concentration) (Hmox1 gene) | Hmox1 gene expression level (relative value) (Hmox1 gene; 0.00001 nM test compound) | Hmox1 gene expression level (relative value) (Hmox1 gene; 0.001 nM test compound) | Hmox1 gene expression level (relative value) (Hmox1 gene; 0.03 nM test compound) | Hmox1 gene expression level (relative value) (Hmox1 gene; 0.3 nM test compound) | Hmox1 gene expression level (relative value) (Hmox1 gene; 3 nM test compound) | Hmox1 gene expression level (relative value) (Hmox1 gene; 30 nM test compound) | concentration at which the expression level of the Hmox1 gene was increased 2-fold (Hmox1 gene) | concentration at which the expression level of the Hmox1 gene was increased 5-fold (Hmox1 gene) | cytotoxicity (LDH-Cytotoxic Test), mean (ARPE-19 cells) | Score of pathological condition of retina ([1]; 0.03 mg/kg oral once a day) | Score of pathological condition of retina ([1]; 0.1 mg/kg oral once a day) | Score of pathological condition of retina ([1]; 0.3 mg/kg oral once a day) | effect on score of the pathological condition of the retina (in words) ([1]; rat oxygen-induced retinopathy, oral 0.03 to 0.3 mg/kg)
COC(=O)[C@@]12CC[C@]3(C)[C@H](C(=O)C=C4[C@@]5(C)[C@H]6O[C@@]6(C#N)C(=O)C(C)(C)[C@@H]5CC[C@]43C)[C@@H]1CC(C)(C)[C@@H](O)C2 [terpenoid derivative B] | 2747 times | 92 times | 1.3 ± 0.0 | 0.9 ± 0.1 | 5.4 ± 0.1 | 6.1 ± 0.5 | 10.4 ± 1.5 | 20.8 ± 1.9 | 0.00091 nM | 0.12 nM | 2% | 3.93 ± 0.79 | 3.54 ± 0.48 | 2.57 ± 0.35 | suppressed the score of the pathological condition of the retina in a dose-dependent manner
COC(=O)[C@]12CCC(C)(C)C[C@H]1[C@H]1C(=O)C=C3[C@@]4(C)C=C(C#N)C(=O)C(C)(C)[C@@H]4CC[C@@]3(C)[C@]1(C)CC2 [CDDO-Me, methyl 2-cyano-3,12-dioxooleana-1,9-dien-28-oate, reference compound] |  |  | 1.1 ± 0.0 | 1.0 ± 0.1 | 1.4 ± 0.0 | 1.4 ± 0.1 | 2.1 ± 0.3 | 12.2 ± 2.6 | 2.5 nM | 11 nM | 43% |  |  |  | 
